The source of these data is US20050137145A1, “Metabolites of 1-dimethylamino-3-(3-methoxy-phenyl)-2-methyl-pentan-3-ol and their use in the treatment of urinary incontinence” (Gruenenthal GmbH, priority 2002, published 2005).

Marks after values point to notes of the source that are not given here.

The test system of the assay is naive female Sprague-Dawley rats. The experiment in a line: Cystometry test system on the conscious naive rat. To be noted: for BC bladder capacity (change relative to the preliminary value) / ICI inter-contraction interval (change relative to the preliminary value) / TP threshold pressure (change relative to the preliminary value): at maximum activity, mean of 3 miction cycles; for effect on bladder regulation (in words): summary of the cystometry results, i.v. The class given is in vivo. On the procedure:
Cystometric investigations were carried out on naive female Sprague-Dawley rats according to the method of Ishizuka et al. ((1997), Naunyn-Schmiedeberg's Arch. Pharmacol. 355: 787-793). Three days after the implantation of bladder and venous catheters, the animals, which were free to move, were studied in the conscious state. The bladder catheter was attached to a pressure transducer and an injection pump. The animals were placed in metabolic cages which allowed the volume of urine to be measured. Physiological saline solution was infused into the emptied bladder (10 ml/h) and the bladder pressure and miction volume were recorded continuously. After a stabilization phase, a 20-minute phase characterised by normal, reproducible miction cycles was recorded. The following parameters, inter alia, were determined: • threshold pressure (TP, bladder pressure immediately before miction), • bladder capacity (BC, residual volume after previous miction plus volume of solution infused during the filling phase), • inter-contraction interval (ICI, the time interval between mictions).
An increase in the threshold pressure (TP) indicates an important therapeutic activity in one of the indications according to the invention. The inter-contraction interval (ICI) is also an important parameter for measuring the physiological effectiveness of a substance in the treatment of urinary incontinence, as is the bladder capacity (BC). Because the causes of the symptoms of these disorders are highly heterogeneous, it is not necessary for all three parameters to be influenced positively in order for effectiveness to exist. It is, therefore, entirely satisfactory for a positive effect to be determined in only one of these parameters in order to be usable in urinary incontinence or increased urinary urgency.
After three reproducible miction cycles had been recorded as the preliminary value, the test substances 1 (1.0 mg/kg), 2 (0.1; 0.3 and 0.5 mg/kg), 21 (0.5 mg/kg) and 7 (0.3 mg/kg) were administered i.v. in the vehicle=0.9% NaCl and the effect on the cystometric parameters was recorded for 90 to 120 minutes. At the maximum activity, the mean of 3 miction cycles was determined and indicated as the percentage change relative to the preliminary value (Table 1).

As for `CC[C@](O)(c1cccc(OC)c1)[C@H](C)CN(C)C.Cl` (racemic) [Compound 1, (2RS,3RS)-1-Dimethylamino-3-(3-methoxy-phenyl)-2-methyl-pentan-3-ol, hydrochloride], where the note is “1.0 mg/kg i.v.”, the “BC bladder capacity (change relative to the preliminary value)” value is “+31%***”, the “ICI inter-contraction interval (change relative to the preliminary value)” value is recorded as “+42%” and the “TP threshold pressure (change relative to the preliminary value)” value is “+94%**”.

Regarding `CCC(O)(c1cccc(O)c1)C(C)CN(C)C.Cl` (racemic) [Compound 7, (2RS,3RS)-3-(3-Dimethylamino-1-ethyl-1-hydroxy-2-methyl-propyl)-phenol, hydrochloride], where the note is “0.3 mg/kg i.v.”, the “BC bladder capacity (change relative to the preliminary value)” value is recorded as “+32%*”, the “ICI inter-contraction interval (change relative to the preliminary value)” value was “+28%*” and the “TP threshold pressure (change relative to the preliminary value)” value is recorded as “+95%**”.

Consider `CC[C@](O)(c1cccc(OC)c1)[C@H](C)CN(C)C.Cl` [Compound 2, (+)-(2R,3R)-1-Dimethylamino-3-(3-methoxy-phenyl)-2-methyl-pentan-3-ol, hydrochloride], for which the “effect on bladder regulation (in words)” value is given as “very effective”. Besides, where the note is “0.1 mg/kg i.v.”, the “BC bladder capacity (change relative to the preliminary value)” value is given as “+7.8%”, the “ICI inter-contraction interval (change relative to the preliminary value)” value is listed as “+15.6%” and the “TP threshold pressure (change relative to the preliminary value)” value is “+28.5%**”. In addition, where the note is “0.3 mg/kg i.v.”, the “BC bladder capacity (change relative to the preliminary value)” value was “+33%*”, the “ICI inter-contraction interval (change relative to the preliminary value)” value is listed as “+28%*” and the “TP threshold pressure (change relative to the preliminary value)” value is “+122%**”. In addition, where the note is “0.5 mg/kg i.v.”, the “BC bladder capacity (change relative to the preliminary value)” value was “+20.6%*”, the “ICI inter-contraction interval (change relative to the preliminary value)” value is “+28.6%**” and the “TP threshold pressure (change relative to the preliminary value)” value is given as “+77.5%**”.

In the case of `CC[C@@](O)(c1cccc(OC)c1)[C@@H](C)CN(C)C.Cl` [Compound 21, (−)-(2S,3S)-1-Dimethylamino-3-(3-methoxy-phenyl)-2-methyl-pentan-3-ol, hydrochloride], the “effect on bladder regulation (in words)” value is reported as “does not make such a strong contribution to the action”. Where the note is “0.5 mg/kg i.v.”, the “BC bladder capacity (change relative to the preliminary value)” value is “+3%”, the “ICI inter-contraction interval (change relative to the preliminary value)” value is “+10%” and the “TP threshold pressure (change relative to the preliminary value)” value is listed as −1.1%.
